Reference: the supplement of paper PMC13207355

Legend:
Conditions in all cases: exposure time: 72 h
E13 [1] = patient-derived glioblastoma stem cells of classical subtype; assay: surviving fraction (nuclei count normalised to DMSO); higher = more cells surviving (less toxic)
E21 [2] = patient-derived glioblastoma stem cells of mesenchymal subtype; assay: as above
E28 [3] = patient-derived glioblastoma stem cells of classical subtype; assay: as above
E31 [4] = patient-derived glioblastoma stem cells of proneural subtype; assay: as above
E34 [5] = patient-derived glioblastoma stem cells of proneural subtype; assay: as above
E57 [6] = patient-derived glioblastoma stem cells of mesenchymal subtype; assay: as above
FT3469 [7] = normal neural stem cell line; assay: as above
E13 [8] = assay: phenotypic distance (Euclidean, principal components) from DMSO controls (arbitrary units); higher = stronger morphological change
E21 [9] = assay: as above
E28 [10] = assay: as above
E31 [11] = assay: as above
E34 [12] = assay: as above
E57 [13] = assay: as above
FT3469 [14] = assay: as above
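Wherever phenotypic distance (Euclidean, principal components) from DMSO controls is given: cell Painting imaging in 384-well plates, CellProfiler features reduced to at least 20 principal components, Euclidean distance versus same-plate DMSO vehicle wells (0.1% v/v), median over six images per well.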
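Wherever surviving fraction (nuclei count normalised to DMSO) is given: nuclei counted by high-content imaging of Hoechst-stained cells in laminin-coated 384-well plates, relative to 0.1% DMSO vehicle wells, with staurosporine as cell-death control.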

Question: `Nc1nc2n[nH]nc2c(=O)[nH]1` [Azaguanine-8] was tested. Which surviving fraction (E13 [1]; 4.1 nM) did it give?
Answer: Its surviving fraction is 0.918.

Question: What about the surviving fraction (E13 [1]; 12.3 nM) of the same compound?
Answer: The surviving fraction was 1.02.

Question: What about the surviving fraction (E13 [1]; 37 nM) of the same compound?
Answer: The surviving fraction was 1.08.

Question: And the surviving fraction (E13 [1]; 111.1 nM)?
Answer: The surviving fraction was 0.87.

Question: And the surviving fraction (E13 [1]; 333.3 nM)?
Answer: Its surviving fraction is 0.559.

Question: And the surviving fraction (E13 [1]; 1000 nM)?
Answer: Its surviving fraction is 0.581.

Question: What about the surviving fraction (E13 [1]; 3000 nM) of the same compound?
Answer: Its surviving fraction is 0.307.

Question: What about the surviving fraction (E21 [2]; 4.1 nM) of the same compound?
Answer: Its surviving fraction is 0.917.

Question: What about the surviving fraction (E21 [2]; 12.3 nM) of the same compound?
Answer: The surviving fraction was 1.06.

Question: What about the surviving fraction (E21 [2]; 37 nM) of the same compound?
Answer: The surviving fraction was 0.788.

Question: What about the surviving fraction (E21 [2]; 111.1 nM) of the same compound?
Answer: The surviving fraction was 0.68.

Question: What about the surviving fraction (E21 [2]; 333.3 nM) of the same compound?
Answer: The surviving fraction was 0.489.

Question: And the surviving fraction (E21 [2]; 1000 nM)?
Answer: The surviving fraction was 0.429.

Question: And the surviving fraction (E21 [2]; 3000 nM)?
Answer: The surviving fraction was 0.296.

Question: What about the surviving fraction (E28 [3]; 4.1 nM) of the same compound?
Answer: The surviving fraction was 1.08.

Question: What about the surviving fraction (E28 [3]; 12.3 nM) of the same compound?
Answer: Its surviving fraction is 1.11.

Question: What about the surviving fraction (E28 [3]; 37 nM) of the same compound?
Answer: The surviving fraction was 1.14.

Question: What about the surviving fraction (E28 [3]; 111.1 nM) of the same compound?
Answer: The surviving fraction was 0.882.

Question: What about the surviving fraction (E28 [3]; 333.3 nM) of the same compound?
Answer: Its surviving fraction is 0.664.

Question: What about the surviving fraction (E28 [3]; 1000 nM) of the same compound?
Answer: The surviving fraction was 0.574.

Question: What about the surviving fraction (E28 [3]; 3000 nM) of the same compound?
Answer: The surviving fraction was 0.292.

Question: What about the surviving fraction (E31 [4]; 4.1 nM) of the same compound?
Answer: Its surviving fraction is 0.825.

Question: What about the surviving fraction (E31 [4]; 12.3 nM) of the same compound?
Answer: The surviving fraction was 0.941.

Question: And the surviving fraction (E31 [4]; 37 nM)?
Answer: Its surviving fraction is 1.07.

Question: And the surviving fraction (E31 [4]; 111.1 nM)?
Answer: The surviving fraction was 0.654.

Question: And the surviving fraction (E31 [4]; 333.3 nM)?
Answer: Its surviving fraction is 0.48.

Question: And the surviving fraction (E31 [4]; 1000 nM)?
Answer: Its surviving fraction is 0.225.

Question: And the surviving fraction (E31 [4]; 3000 nM)?
Answer: Its surviving fraction is 0.0814.

Question: What about the surviving fraction (E34 [5]; 4.1 nM) of the same compound?
Answer: Its surviving fraction is 0.988.

Question: And the surviving fraction (E34 [5]; 12.3 nM)?
Answer: Its surviving fraction is 0.839.

Question: And the surviving fraction (E34 [5]; 37 nM)?
Answer: Its surviving fraction is 0.913.

Question: And the surviving fraction (E34 [5]; 111.1 nM)?
Answer: The surviving fraction was 0.939.

Question: And the surviving fraction (E34 [5]; 333.3 nM)?
Answer: The surviving fraction was 0.795.

Question: And the surviving fraction (E34 [5]; 1000 nM)?
Answer: Its surviving fraction is 0.601.

Question: What about the surviving fraction (E34 [5]; 3000 nM) of the same compound?
Answer: The surviving fraction was 0.563.

Question: And the surviving fraction (E57 [6]; 4.1 nM)?
Answer: The surviving fraction was 1.

Question: What about the surviving fraction (E57 [6]; 12.3 nM) of the same compound?
Answer: The surviving fraction was 0.873.

Question: And the surviving fraction (E57 [6]; 37 nM)?
Answer: Its surviving fraction is 0.831.

Question: And the surviving fraction (E57 [6]; 111.1 nM)?
Answer: Its surviving fraction is 0.605.

Question: What about the surviving fraction (E57 [6]; 333.3 nM) of the same compound?
Answer: Its surviving fraction is 0.459.

Question: And the surviving fraction (E57 [6]; 1000 nM)?
Answer: Its surviving fraction is 0.271.

Question: And the surviving fraction (E57 [6]; 3000 nM)?
Answer: Its surviving fraction is 0.22.

Question: And the surviving fraction (FT3469 [7]; 4.1 nM)?
Answer: The surviving fraction was 0.958.

Question: What about the surviving fraction (FT3469 [7]; 12.3 nM) of the same compound?
Answer: Its surviving fraction is 1.15.

Question: What about the surviving fraction (FT3469 [7]; 37 nM) of the same compound?
Answer: Its surviving fraction is 1.2.

Question: What about the surviving fraction (FT3469 [7]; 111.1 nM) of the same compound?
Answer: Its surviving fraction is 0.987.

Question: What about the surviving fraction (FT3469 [7]; 333.3 nM) of the same compound?
Answer: The surviving fraction was 0.881.

Question: What about the surviving fraction (FT3469 [7]; 1000 nM) of the same compound?
Answer: The surviving fraction was 0.685.

Question: What about the surviving fraction (FT3469 [7]; 3000 nM) of the same compound?
Answer: The surviving fraction was 0.59.

Question: And the phenotypic distance (E13 [8]; 4.1 nM)?
Answer: The phenotypic distance was 0.737.

Question: What about the phenotypic distance (E13 [8]; 12.3 nM) of the same compound?
Answer: The phenotypic distance was 0.508.

Question: What about the phenotypic distance (E13 [8]; 37 nM) of the same compound?
Answer: Its phenotypic distance is 1.23.

Question: And the phenotypic distance (E13 [8]; 111.1 nM)?
Answer: The phenotypic distance was 0.95.

Question: What about the phenotypic distance (E13 [8]; 333.3 nM) of the same compound?
Answer: Its phenotypic distance is 2.46.

Question: What about the phenotypic distance (E13 [8]; 1000 nM) of the same compound?
Answer: Its phenotypic distance is 2.82.

Question: And the phenotypic distance (E13 [8]; 3000 nM)?
Answer: Its phenotypic distance is 5.02.

Question: And the phenotypic distance (E21 [9]; 4.1 nM)?
Answer: The phenotypic distance was 0.646.

Question: What about the phenotypic distance (E21 [9]; 12.3 nM) of the same compound?
Answer: Its phenotypic distance is 1.28.

Question: And the phenotypic distance (E21 [9]; 37 nM)?
Answer: The phenotypic distance was 1.04.

Question: What about the phenotypic distance (E21 [9]; 111.1 nM) of the same compound?
Answer: Its phenotypic distance is 1.87.

Question: What about the phenotypic distance (E21 [9]; 333.3 nM) of the same compound?
Answer: The phenotypic distance was 3.3.

Question: What about the phenotypic distance (E21 [9]; 1000 nM) of the same compound?
Answer: The phenotypic distance was 4.9.

Question: What about the phenotypic distance (E21 [9]; 3000 nM) of the same compound?
Answer: The phenotypic distance was 7.15.

Question: And the phenotypic distance (E28 [10]; 4.1 nM)?
Answer: Its phenotypic distance is 0.671.

Question: What about the phenotypic distance (E28 [10]; 12.3 nM) of the same compound?
Answer: Its phenotypic distance is 0.89.

Question: What about the phenotypic distance (E28 [10]; 37 nM) of the same compound?
Answer: The phenotypic distance was 1.

Question: What about the phenotypic distance (E28 [10]; 111.1 nM) of the same compound?
Answer: The phenotypic distance was 0.848.

Question: What about the phenotypic distance (E28 [10]; 333.3 nM) of the same compound?
Answer: The phenotypic distance was 1.21.

Question: What about the phenotypic distance (E28 [10]; 1000 nM) of the same compound?
Answer: Its phenotypic distance is 1.81.

Question: And the phenotypic distance (E28 [10]; 3000 nM)?
Answer: Its phenotypic distance is 3.73.

Question: And the phenotypic distance (E31 [11]; 4.1 nM)?
Answer: The phenotypic distance was 1.03.

Question: And the phenotypic distance (E31 [11]; 12.3 nM)?
Answer: Its phenotypic distance is 0.622.

Question: And the phenotypic distance (E31 [11]; 37 nM)?
Answer: Its phenotypic distance is 0.999.

Question: What about the phenotypic distance (E31 [11]; 111.1 nM) of the same compound?
Answer: The phenotypic distance was 1.08.

Question: What about the phenotypic distance (E31 [11]; 333.3 nM) of the same compound?
Answer: The phenotypic distance was 1.4.

Question: And the phenotypic distance (E31 [11]; 1000 nM)?
Answer: Its phenotypic distance is 2.35.

Question: What about the phenotypic distance (E31 [11]; 3000 nM) of the same compound?
Answer: The phenotypic distance was 5.2.

Question: What about the phenotypic distance (E34 [12]; 4.1 nM) of the same compound?
Answer: The phenotypic distance was 0.455.

Question: What about the phenotypic distance (E34 [12]; 12.3 nM) of the same compound?
Answer: Its phenotypic distance is 0.707.

Question: And the phenotypic distance (E34 [12]; 37 nM)?
Answer: Its phenotypic distance is 0.662.

Question: And the phenotypic distance (E34 [12]; 111.1 nM)?
Answer: The phenotypic distance was 0.809.

Question: What about the phenotypic distance (E34 [12]; 333.3 nM) of the same compound?
Answer: The phenotypic distance was 1.12.

Question: And the phenotypic distance (E34 [12]; 1000 nM)?
Answer: Its phenotypic distance is 2.2.

Question: And the phenotypic distance (E34 [12]; 3000 nM)?
Answer: Its phenotypic distance is 3.18.

Question: And the phenotypic distance (E57 [13]; 4.1 nM)?
Answer: The phenotypic distance was 0.712.

Question: And the phenotypic distance (E57 [13]; 12.3 nM)?
Answer: Its phenotypic distance is 0.801.

Question: What about the phenotypic distance (E57 [13]; 37 nM) of the same compound?
Answer: Its phenotypic distance is 1.2.

Question: And the phenotypic distance (E57 [13]; 111.1 nM)?
Answer: The phenotypic distance was 1.96.

Question: What about the phenotypic distance (E57 [13]; 333.3 nM) of the same compound?
Answer: The phenotypic distance was 3.18.

Question: And the phenotypic distance (E57 [13]; 1000 nM)?
Answer: The phenotypic distance was 5.55.

Question: And the phenotypic distance (E57 [13]; 3000 nM)?
Answer: The phenotypic distance was 6.09.

Question: What about the phenotypic distance (FT3469 [14]; 4.1 nM) of the same compound?
Answer: Its phenotypic distance is 0.821.

Question: What about the phenotypic distance (FT3469 [14]; 12.3 nM) of the same compound?
Answer: Its phenotypic distance is 1.13.

Question: What about the phenotypic distance (FT3469 [14]; 37 nM) of the same compound?
Answer: The phenotypic distance was 0.941.

Question: What about the phenotypic distance (FT3469 [14]; 111.1 nM) of the same compound?
Answer: The phenotypic distance was 1.28.

Question: What about the phenotypic distance (FT3469 [14]; 333.3 nM) of the same compound?
Answer: Its phenotypic distance is 1.37.

Question: And the phenotypic distance (FT3469 [14]; 1000 nM)?
Answer: The phenotypic distance was 1.95.

Question: What about the phenotypic distance (FT3469 [14]; 3000 nM) of the same compound?
Answer: Its phenotypic distance is 2.95.
